Reference: US20130236473A1, “THERAPEUTIC AGENTS AND PROPHYLACTIC AGENTS FOR SYMPTOMS ACCOMPANYING AUTOIMMUNE DISEASES, INFLAMMATORY DISEASES, ALLERGY DISEASES AND ORGAN TRANSPLANTS” (OSAKA UNIVERSITY, priority 2010, published 2013)

Tested on: IL-6 amplifier
Assay: Example 2: PI3 kinase inhibitors, mIL-6 protein production on IL-6 amplifier activation in BC-1 cells (ELISA)
Format: cell-based
Conditions: 24 hours, conditions (a) to (d), 0 or 100 ng/ml mouse epiregulin, LY294002 0.1-10, PIK75 0.01-1.0 micromole/L
Experimental: 2×10^5 mouse BC-1 cells were cultured in an RPMI 1640 medium for 24 hours under each of the following conditions: • (a) in the presence of 10% FBS, • (b) with the addition of 50 ng/ml of hIL-6 protein and 50 ng/ml of hIL-6R protein (hereinafter referred to as “hIL-6/6R proteins”) and in the presence of 10% FBS, • (c) with the addition of 50 ng/ml of mIL-17A protein and in the presence of 10% FBS, • (d) with the addition of hIL-6/6R proteins at 50 ng/ml and mIL-17A protein at 50 ng/ml and in the presence of 10% FBS, • (e) in the absence of FBS, • (f) with the addition of hIL-6/6R proteins each at 50 ng/ml and in the absence of FBS, • (g) with the addition of 50 ng/ml of mIL-17A protein and in the absence of FBS, or • (h) with the addition of hIL-6/6R proteins each at 50 ng/ml and mIL-17A protein at 50 ng/ml and in the absence of FBS. […]
After the culture, the production amount of mouse IL-6 protein under each condition was quantified by an ELISA method. […]

## O=c1cc(N2CCOCC2)oc2c(-c3ccccc3)cccc12 [LY294002, 2-(4-Morpholinyl)-8-phenyl-4H-1-benzopyran-4-one]
  increase in the expression amount of mIL-6 protein due to the activation of IL-6 amplifier: can be suppressed
